This note sets out measurements from patent US11135252B2, “Probiotic therapies for developmental disorders and other neurological disorders” (Baylor College of Medicine, priority 2016, dated 2021).

Test [1] relates to MHFD offspring. The test can be described thus: Reciprocal social interaction test in MHFD offspring. Format: in vivo, mice. An excerpt:
Animal care and experimental procedures were approved by Baylor College of Medicine's Institutional Animal Care and Use Committee in accordance with all guidelines set forth by the U.S. National Institutes of Health. Reciprocal Social Interaction. Mice were placed in a 25×25×25 cm Plexiglass arena, to which they had not been previously habituated, with either a familiar (cage-mate) or stranger age- and sex-matched conspecific. In all experiments, paired mice were matched for maternal diet, colonization source, and/or treatment. We recorded the time a pair of mice engaged in social interaction (close following, touching, nose-to-nose sniffing, nose-to-anus sniffing, and/or crawling over/under each other). The human observer was blind to maternal diet and/or treatment group. Social behavior was analyzed with AnyMaze automated software. Lactobacillus reuteri MM4-1A (ATCC-PTA-6475) and Lactobacillus johnsonii (ATCC 33200) were cultured anaerobically in MRS broth in a 90% N2, 5% CO2, 5% H2 environment. L. reuteri was heat-killed by keeping the bacteria at 80° C. for 20 minutes (Wang et al., 2010). Bacterial viability was assessed by plating and the efficacy of the heat-kill procedure was confirmed by the absence of colony growth following plating. Cultures were centrifuged, washed, and resuspended in anaerobic solution (PBS) and frozen at −80° C. until use. PBS, live or heat-killed L. reuteri were added to the drinking water, which was changed daily to minimize dosage variability. Whereas the experimental group received live bacteria, one control group received identically prepared cultures of heat-killed bacteria. A second group of control mice received water treated with PBS alone. Live and heat-killed L. reuteri were supplied at a dosage of 1×10^8 organisms/mouse/day continuously in drinking water. Mice consumed the treated water ad libitum over the treatment period. The treated drinking water for each group was replaced daily two hours prior to the onset of the dark cycle to minimize variation in microbial exposure. Behavioral assays were initiated after 4-weeks of L. reuteri or control treatment. The protocol of the L. johnsonii preparation and administration matched the L. reuteri protocol. Fecal samples for sequencing and tissue used in the immunofluorescence studies were collected at the end of the treatment. Oxytocin was obtained from Tocris Bioscience (product 1910) and solubilized in 10% dimethyl sulfoxide (DMSO) in PBS. 10% DMSO in PBS was used as the vehicle control. Mice received oxytocin intranasally (at approximately 200 μg/kg) thirty minutes prior to behavior. 1.25 μl of oxytocin or vehicle solution was injected into each nostril from P10 pipette. Oxytocin dose was selected according to dosages reported to rescue social behavior in genetic models phenotypically expressing ASD-like behaviors (Penagarikano et al., 2015).

Test [2] relates to MHFD offspring. The test can be described thus: Open field test in MHFD offspring. Format: in vivo, mice. The conditions noted are these: L. reuteri in drinking water. The protocol:
Mice were placed in an open arena (40×40×20 cm) and allowed to explore freely for 10 minutes while their position was continually monitored using tracking software (ANY-Maze). Tracking allowed for measurement of distance traveled, speed, and position in the arena throughout the task. Time spent in the center of the arena, defined as the interior 20×20 cm, was recorded. Lactobacillus reuteri MM4-1A (ATCC-PTA-6475) and Lactobacillus johnsonii (ATCC 33200) were cultured anaerobically in MRS broth in a 90% N2, 5% CO2, 5% H2 environment. L. reuteri was heat-killed by keeping the bacteria at 80° C. for 20 minutes (Wang et al., 2010). Bacterial viability was assessed by plating and the efficacy of the heat-kill procedure was confirmed by the absence of colony growth following plating. Cultures were centrifuged, washed, and resuspended in anaerobic solution (PBS) and frozen at −80° C. until use. PBS, live or heat-killed L. reuteri were added to the drinking water, which was changed daily to minimize dosage variability. Whereas the experimental group received live bacteria, one control group received identically prepared cultures of heat-killed bacteria. A second group of control mice received water treated with PBS alone. Live and heat-killed L. reuteri were supplied at a dosage of 1×10^8 organisms/mouse/day continuously in drinking water. […]

“Also recorded” adds a separate entry of the source.

For `CC[C@H](C)[C@@H]1NC(=O)[C@H](Cc2ccc(O)cc2)NC(=O)[C@@H](N)CSSC[C@@H](C(=O)N2CCC[C@H]2C(=O)N[C@@H](CC(C)C)C(=O)NCC(N)=O)NC(=O)[C@H](CC(N)=O)NC(=O)[C@H](CCC(N)=O)NC1=O` [oxytocin], in the test on MHFD offspring [1] (intranasal oxytocin), the “contact duration in reciprocal social interaction test” value is “improved MHFD offspring contact duration” and the “interaction frequency in reciprocal social interaction test” value is “improved”. Further, the reciprocal social interaction result with MHFD offspring [1] (intranasal oxytocin approximately 200 μg/kg, 30 min prior) was “improved reciprocal social interaction”. In the test on MHFD offspring [1] (intranasal oxytocin approximately 200 μg/kg, 30 min prior, listed as Oxytocin), the reciprocal social interaction result is recorded as “restored reciprocal social interaction”.
Take “Lactobacillus reuteri MM4-1A (ATCC-PTA-6475) [L. reuteri]”: the “time exploring the center of the open field arena (anxiety-related behavior)” value in the test with MHFD offspring [2] is given as “failed to rescue the changes in anxiety; also recorded: did not significantly affect this behavior”. For the same compound, the reciprocal social interaction entry is recorded as “rescued” in the test with MHFD offspring [1] (bacteria in drinking water) and “restored reciprocal social interaction” in the test on MHFD offspring [1] (bacteria in drinking water, listed as live L. reuteri).
